Data reported in patent US10875864B2, “Substituted imidazo[1,2-B]pyridazines as protein kinase inhibitors” (SUMITOMO DAINIPPON PHARMA ONCOLOGY, INC., priority 2011, dated 2020).

Experiments:
PC-3 cells = test: Colony formation assay, PC-3; assay type: cell-based
Protocol: (§1) For shRNA growth experiments, 500 UM-UC-3 cells were seeded in a 12-well plate 48 hours post-transduction and cultured for 8-10 days at 37° C. in 5% CO2. Cells were fixed with 4% paraformaldehyde in PBS, washed twice with PBS, and stained with a crystal violet solution (1% crystal violet, 10% ethanol in water). Stained cells were washed thrice with water, and imaged after drying on a GelCount colony counter (Oxford Optronix Ltd., Oxford, UK). Total staining intensity per well was determined by lysis of cells with 200 μl of Triton X-100 lysis buffer (1% Triton X-100, 50 mM Tris-HCl pH 7.4, 150 mM NaCl, 1 mM EDTA). Lysates (100 μl) from each well were transferred to a clear 96-well plate and absorbance at 560 nm was determined on an Envision microplate reader. IC50 values were determined using GraphPad Prism software. For compound treated PC-3 and UM-UC-3, cells were seeded and stained as above, but were incubated with various concentrations of test compound or DMSO one day after seeding.
(§2) Translational models were also explored for PIM dependency using shRNA knockdown. The UM-UC-3 urinary epithelial bladder carcinoma cell line was used to verify and validate dependency on PIM-1 for growth. […] Reduction of PIM-1 mRNA and growth also were observed using both PIM-1 and PIM-2 shRNA in the androgen-independent prostate carcinoma cell line PC-3 (data not shown).

[1] = system: ML-2 cells (wild-type FLT3); test: ML-2 mouse xenograft; assay type: in vivo; settings: ML-2, wild-type FLT3
From the text: (§3) Male and female Nu/Nu mice were purchased from Harlan Sprague Dawley (Indianapolis, Ind.). Female Nu/Nu mice were used for all xenograft evaluations with the exception of the PC-3 xenografts where male Nu/Nu mice were used. Cell lines were expanded in vitro in complete media, and if adherent were harvested by trypsin-EDTA, centrifuged and resuspended in PBS 1:1 with Matrigel (BD Bioscienes). Cells were inoculated subcutaneously in the right hind flank of mice. When tumors reached 100-200 mm^3 by caliper measurement, mice were randomized and dosing of SGI-9481 or vehicle control began and continued every day for 5 days (QD×5) with 2 days off for 18-21 days. Tumor volumes and body weights were determined twice a week, and tumor weights were measured at the completion of the translational xenograft studies.

[2] = system: phosphatidyl inositol-3-kinase (PI3K) family; test: Selectivity study, PI3K family; assay type: biochemical; settings: multiple members
NIH-3T3/PIM-2 xenografts = test: NIH-3T3/PIM-2 over-expression tumor xenograft; assay type: in vivo, mouse
From the text: as §3
(§4) The prostate cancer cell line 22RV1 engineered to over-express PIM-1 as previously described (Mumenthaler, et al, Mol. Cancer Ther., 2009, 8(10)2882-93) was evaluated in vivo. A second model engineered to over-express PIM-2 was established using the NIH-3T3 mouse fibroblast cell line.

PC-3 xenograft tumors = test: PC-3 established mouse xenograft; assay type: in vivo
From the text: as §3, with “When tumors reached 100-200 mm^3 by caliper measurement, mice were randomized and dosing of SGI-9481 or vehicle control began and continued every day for 5 days (QD×5) with 2 days off for 18-21 days.” left out

UM-UC-3 xenograft tumors = test: UM-UC-3 established mouse xenograft; assay type: in vivo
From the text: as §3, with “When tumors reached 100-200 mm^3 by caliper measurement, mice were randomized and dosing of SGI-9481 or vehicle control began and continued every day for 5 days (QD×5) with 2 days off for 18-21 days.” left out

MV-4-11 (FLT3-ITD) = test: MV-4-11 mouse xenograft; assay type: in vivo
From the text: as §3

22RV1/PIM-1 xenografts = test: 22RV1/PIM-1 over-expression tumor xenograft; assay type: in vivo, mouse
From the text: as §3, §4

UM-UC-3 cells = test: Colony formation assay, UM-UC-3; assay type: cell-based
Protocol: as §1, §2

Compound: CC(C)(O)[C@H]1CC[C@H](Nc2ccc3ncc(-c4cccc(C(F)(F)F)c4)n3n2)CC1 [Compound 8-31]
- colony growth (PC-3 cells): reduced colony growth
- tumor growth inhibition [1]: significant tumor growth inhibition
- activity against PI3K family members [2]: inhibitory activity
- subcutaneous tumor growth (NIH-3T3/PIM-2 xenografts; NIH-3T3/PIM-2 + compound vs vehicle): significantly inhibited
- body weight change (NIH-3T3/PIM-2 xenografts; NIH-3T3 xenograft mice): No significant changes in body weight
- tumor growth inhibition (PC-3 xenograft tumors; 125 mg/kg): significant tumor growth inhibition
- body weight and gross toxicity (PC-3 xenograft tumors; oral 200 mg/kg): no significant changes in body weight or gross adverse toxicity
- tumor growth by volume and final tumor weight (PC-3 xenograft tumors; oral 200 mg/kg): significantly reduced
- tumor growth inhibition (UM-UC-3 xenograft tumors; 125 mg/kg): significant tumor growth inhibition
- body weight and gross toxicity (UM-UC-3 xenograft tumors; oral 200 mg/kg): no significant changes in body weight or gross adverse toxicity
- tumor growth by volume and final tumor weight (UM-UC-3 xenograft tumors; oral 200 mg/kg): significantly reduced
- effect on established xenografts (MV-4-11 (FLT3-ITD)): induced regressions
- subcutaneous tumor growth (22RV1/PIM-1 xenografts; 22RV1/PIM-1 + compound vs vehicle): significantly reduced
- body weight change (22RV1/PIM-1 xenografts; 22RV1 xenograft mice): No significant changes in body weight
- colony growth (UM-UC-3 cells): reduced colony growth
